Test results taken from US9725490B2, “ERAP1-derived peptide and use thereof” (TOKUSHIMA UNIVERSITY, priority 2011, dated 2017).

Key:
KPL-3C tumor = assay: In vivo inhibition of tumor proliferation, concomitant use with tamoxifen, KPL-3C transplant; parameters: species or system BALB/c nude mouse; conditions: intraperitoneal every day, day 14
Source text: FIG. 18 is a diagram illustrating the influence of concomitant use of the ERAP1-peptide and tamoxifen on tumor proliferation in a human breast cancer-transplanted mouse. KPL-3 cells were subcutaneously transplanted into the breast fat body of a BALB/c nude mouse. The treatment test individuals/group) was initiated (day 0) when the volume of the tumor reached about 50-80 mm^3 in the absence E2.
KPL-3 cells were subcutaneously transplanted into the breast fat body of a BALB/c nude mouse. When the volume of the tumor reached about 50-80 mm^3 in the absence of E2, the treatment test (5 individuals/group) was initiated (day 0). KPL-3C tumor heterotransplant-carrying mouse was administered with the ERAP1-peptide alone (3.5, 7 and 14 mg/kg), the scramble peptide alone (14 mg/kg), tamoxifen alone (4 mg/kg) or a combination of the ERAP1-peptide (14 mg/kg) and tamoxifen (4 mg/kg) every day by intraperitoneal injection.

[1] = system: transcriptional activity of ERα (AP-1); assay: AP-1-luciferase reporter assay in MCF-7 cells; type: cell-based, human; conditions: 10 nM E2 24 hours
Procedure: (§1) FIG. 3-3 is as diagram illustrating the results of the luciferase assay by which the inhibition effect of the ERAP1-peptide was evaluated. MCF-7 cells temporarily transfected with an ERE-luciferase reporter vector (F) or an AP-1-luciferase reporter vector (F) were treated with the ERAP1-peptide, the scramble peptide or the mutant peptide in the concentrations shown in the […]. Then, immediately, the cells were stimulated with 10 nM E2 for 24 hours. TAM indicates the tamoxifen treatment.
(§2) FIG. 4-3 is a diagram illustrating that the ERAP1-peptide promotes nuclear translocation of PHB2. (C) and (D) are figures that show the results of the luciferase assay by which the inhibition effect of the ERAP1-peptide on the ERα transcriptional activity was evaluated. MCF-7 cells temporarily transfected with an ERE-luciferase reporter vector (C) or an AP-1-luciferase reporter vector (D) were treated with the ERAP1-peptide in the concentrations shown in the figure or 10 nM tamoxifen. Then, immediately, the cells were stimulated with 10 nM E2 thr 24 hours.
(§3) For ERE reporter assay, MCF-7 cells were transfected with ERE reporter (SABiosciences, Frederick, Md., USA) in accordance with the instruction of the manufacturer. For AP-1 reporter assay, MCF-7 cells were transfected with AP-1 reporter (mouse IL-11 promoter comprising two tandem AP-1 sites subcloned into PGL2-basic vector), c-fos, c-Jun and pRL-TK as an internal standard. After 16 hours from the transfection, the culture medium was exchanged with an assay culture medium (Opti-MEM, 10% FBS, 0.1 mM NEAA, 0.1 mM Sodium pyruvate and 10 μg/ml insulin) After 24 hours from the transfection, the cells were treated with E2 and/or the ERAP1-peptide or 24 hours. The cells were harvested, and the activities of luciferase and Renilla-luciferase were evaluated using Promega dual luciferase reporter assay (Tokyo, Japan). In consideration of the transfection efficiency, all of the data were standardized by the activity of Renilla-luciferase.

[2] = molecular target: T1, binding of inherent ERAP1 and inherent PHB2/REA (Homo sapiens, UniProt Q99623); assay: Inhibition of ERAP1-PHB2/REA binding in cells, immunoprecipitation-Western blotting; type: cell-based; conditions: MCF-7 and KPL-3C cells; 10 μM peptide; 10 nM E2 24 hours
T1 construct: endogenous in cells; host or cells: MCF-7 and KPL-3C breast cancer cells
T1 sequence (Q99623 2-299 limits assumed): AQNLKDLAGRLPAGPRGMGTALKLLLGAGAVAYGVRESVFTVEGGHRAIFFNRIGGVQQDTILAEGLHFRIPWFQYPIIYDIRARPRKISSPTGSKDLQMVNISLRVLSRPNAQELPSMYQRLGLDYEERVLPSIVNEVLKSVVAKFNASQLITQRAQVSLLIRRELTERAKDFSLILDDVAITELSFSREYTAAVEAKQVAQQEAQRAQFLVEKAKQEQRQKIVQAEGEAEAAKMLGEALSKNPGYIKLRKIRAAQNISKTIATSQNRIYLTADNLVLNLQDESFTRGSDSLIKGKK

[3] = system: transcriptional activity of ERα (ERE); assay: ERE-luciferase reporter assay in MCF-7 cells; type: cell-based, human; conditions: 10 nM E2 24 hours
Procedure: FIG. 3-2 is a diagram illustrating promotion effect of PHB2 nuclear translocation and suppression effect of the transcriptional activation of ER by ERAP1-peptide treatment. (C) illustrates representative images of stained immune cells, showing the localization of the ERAP1-peptide (HA-tagged ERAP1-peptide) and PHB2. MCF-7 cells were treated with 10 μM HA-tagged ERAP1-peptide for 24 hours in the presence or in the absence of 10 nM E2. After the immobilization, the cells were subjected to immunonfluorescent staining using an anti-HA antibody, an anti-PHB2 antibody and DAPI (for discriminating the nucleus). The arrow indicates the nuclear-translocated ERAP1-peptide. […] Then, immediately, the cells were stimulated with 10 nM E2 for 24 hours. TAM indicates the tamoxifen treatment.
as §1, §2, §3

ERα phosphorylation = assay: E2-induced ERα phosphorylation, Western blotting, MCF-7; type: cell-based, human; conditions: 3 hours to 24 hours after E2

Row | Compound | antitumor effect (tumor volume) (KPL-3C tumor) | transcriptional activity of ERα in AP-1 [1] | inhibition of the binding of inherent ERAP1 and inherent PHB2/REA [2] | transcriptional activity of ERα in ERE [3] | E2-dependent phosphorylation of six sites of ERα (ERα phosphorylation)
1 | CSCC[C@H](NC(=O)[C@H](CCC(N)=O)NC(=O)[C@H](CCCNC(=N)N)NC(=O)[C@H](CCCNC(=N)N)NC(=O)[C@H](CCCNC(=N)N)NC(=O)[C@H](CCCNC(=N)N)NC(=O)[C@H](CCCNC(=N)N)NC(=O)[C@H](CCCNC(=N)N)NC(=O)[C@H](CCCNC(=N)N)NC(=O)[C@H](CCCNC(=N)N)NC(=O)[C@H](CCCNC(=N)N)NC(=O)[C@H](CCCNC(=N)N)NC(=O)[C@@H](N)CCCNC(=N)N)C(=O)N[C@@H](CC(C)C)C(=O)N[C@@H](CO)C(=O)N[C@@H](CC(=O)O)C(=O)N[C@@H](CC(C)C)C(=O)N[C@H](C(=O)N[C@@H](CC(C)C)C(=O)N[C@@H](CCC(N)=O)C(=O)N[C@@H](CC(C)C)C(=O)N[C@@H](CCCNC(=N)N)C(=O)N[C@@H](CCC(N)=O)C(=O)N[C@@H](CCCNC(=N)N)C(=O)O)[C@@H](C)O [ERAP1-peptide] | dose-dependent (3.5, 7 and 14 mg/kg) antitumor effect | suppressed the transcriptional activity of ERα | remarkably inhibited | suppressed the transcriptional activity of ERα | suppressed to the same degree as that of no administration of E2
2 | DRQLQLSTLQRML (SEQ ID NO: 28) (ERAP1-scramble peptide) [reference compound] | the effect was not recognized | no change was recognized | not recognized in any of the cells | no change was recognized | the suppression effect was not recognized
